Laboratory results reported in patent publication US12643892B2, “Pyridazinone compounds for the treatment of neuromuscular diseases” (Edgewise Therapeutics, Inc., priority 2020, dated 2026).

Target: Skeletal Myofibril ATPase (Rabbit Psoas myofibrils)
Assay: Skeletal Myofibril ATPase Assay
Assay type: biochemical
Settings: PK/LDH-coupled NADH absorbance at 340 nm
Experimental: Overview: Myosin ATPase activity was assessed by using a coupled reaction system, in which ADP generated by the myosin ATPase function was coupled to the disappearance of NADH through the pyruvate kinase/lactate dehydrogenase (PK-LDH) system. Myosin ATPase activity produces ADP, which was used as a substrate for PK to produce pyruvate and regenerate ATP. The pyruvate was then used as a substrate by LDH to oxidize NADH to NAD+. The rate of the reaction was monitored through the time-dependent disappearance of NADH using absorbance at 340 nm. Inhibition of ATPase activity by the assayed compounds was indicated by a reduced rate of NADH loss, relative to vehicle-treated controls, over the experimental time window. To assess the selectivity of the assayed compounds for skeletal myofibrils, the compounds were counter-screened in cardiac myofibrils.
Materials: The following stock solutions and reagents were used in the Skeletal Myofibril ATPase Assay:
Stock Solutions of pCa buffer. Combine PIPES, CaCl2, and EGTA solutions with 70 mL of water. Adjust pH to 7.0 and bring final volume to 100 mL.
Buffer A & Buffer B. Buffers were stored on ice until use.
Skeletal Myofibril ATPase Assay Procedure: BSA, ATP, NADH, PEP, and DTT solutions were thawed at room temperature, then transferred to ice. Pellet-frozen myofibrils (approximately twice the required volume) were transferred into a sufficiently large tube and capped. Myofibrils were thawed by rolling in a water bath for approximately 15 min at room temperature and cooled on ice. Buffers A and B were prepared by adjusting volumes as necessary for required number of wells and stored on ice. 0.5 μL of the compounds to be assayed were added into wells of a 384-well plate. Buffers A and B were mixed by inversion immediately prior to use, then 25 μL of each was dispensed using a Multidrop dispenser (Buffer A first, then Buffer B). The absorbance within the wells was measured at 340 nm, using a kinetic protocol in which the wells are read every 1.5-2 min for 1 h. The reaction rate was qualitatively assessed by subtracting the minimum absorbance value from the maximum value for each well, using either the SoftMax Pro plate reader software or a spreadsheet program such as Excel. Using GraphPad Prism 8.0, the data was normalized, with 100% activity defined as the absorbance change in the 1% DMSO vehicle wells and 0% assigned to no change in absorbance over the course of the experiment. The normalized data were fit to a variable-slope four-parameter logistic model, constraining the bottom to be 0 or greater. Compounds of Table 1 to 3 were tested and results of the assay appear in Table 4 herein. A=IC50 is less than or equal to 10 μM; B=IC50 is greater than 10 μM and less than 100 μM; C=IC50 is greater than 100 μM.

Row | Structure (SMILES) | IC50 [µM]
1 | O=c1ccc(-c2nc(-c3ccncc3)no2)cn1Cc1ccc(Cl)cc1 [Compound 119, 1-(4-chlorobenzyl)-5-(3-(pyridin-4-yl)-1,2,4-oxadiazol-5-yl)pyridin-2(1H)-one] | > 120
2 | O=c1ccc(-c2nc(-c3cnccn3)no2)cn1Cc1ccccc1F [Compound 116, 1-(2-fluorobenzyl)-5-(3-(pyrazin-2-yl)-1,2,4-oxadiazol-5-yl)pyridin-2(1H)-one] | > 120
3 | CCNC(=O)Cn1nc(-c2nc(-c3cccnc3)no2)ccc1=O [Compound 13, N-ethyl-2-(6-oxo-3-(3-(pyridin-3-yl)-1,2,4-oxadiazol-5-yl)pyridazin-1(6H)-yl)acetamide] | 10 to 100
4 | CCNC(=O)Cn1nc(-c2nc(-c3cccc(F)c3)no2)ccc1=O [Compound 2, N-ethyl-2-(3-(3-(3-fluorophenyl)-1,2,4-oxadiazol-5-yl)-6-oxopyridazin-1(6H)-yl)acetamide] | ≤ 10
5 | CCNC(=O)Cn1nc(-c2nnc(-c3cccc(Cl)c3)s2)ccc1=O [Compound 24, 2-(3-(5-(3-chlorophenyl)-1,3,4-thiadiazol-2-yl)-6-oxopyridazin-1(6H)-yl)-N-ethylacetamide] | ≤ 10
6 | O=C(Cn1nc(-c2cccs2)ccc1=O)Nc1ccccc1 [Compound 43, 2-(6-oxo-3-(thiophen-2-yl)pyridazin-1(6H)-yl)-N-phenylacetamide] | > 100
7 | COc1ccc(Cn2cc(-c3nc(-c4cccc(C)c4)no3)ccc2=O)cn1 [Compound 88, 1-((6-methoxypyridin-3-yl)methyl)-5-(3-(m-tolyl)-1,2,4-oxadiazol-5-yl)pyridin-2(1H)-one] | ≤ 10
8 | O=c1ccc(-n2cncn2)nn1Cc1ccc(Cl)cc1 [Compound 79, 2-(4-chlorobenzyl)-6-(1H-1,2,4-triazol-1-yl)pyridazin-3(2H)-one] | 10 to 100
9 | Cc1cccc(-c2noc(-c3ccc(=O)n(Cc4cncnc4)c3)n2)c1 [Compound 105, 1-(pyrimidin-5-ylmethyl)-5-(3-(m-tolyl)-1,2,4-oxadiazol-5-yl)pyridin-2(1H)-one] | ≤ 10
10 | CCCNC(=O)Cn1nc(-c2nc(-c3cccnc3)no2)ccc1=O [Compound 50, 2-(6-oxo-3-(3-(pyridin-3-yl)-1,2,4-oxadiazol-5-yl)pyridazin-1(6H)-yl)-N-propylacetamide] | 10 to 100
11 | Cc1cccc(-c2noc(-c3ccc(=O)n(Cc4ccc(C(F)(F)F)nc4)c3)n2)c1 [Compound 114, 5-(3-(m-tolyl)-1,2,4-oxadiazol-5-yl)-l-((6-(trifluoromethyl)pyridin-3-yl)methyl)pyridin-2(1H)-one] | > 120
12 | O=C(Cn1nc(-c2nnc(-c3cc(Cl)ccc3Cl)s2)ccc1=O)NC1CCC1 [Compound 18, N-cyclobutyl-2-(3-(5-(2,5-dichlorophenyl)-1,3,4-thiadiazol-2-yl)-6-oxopyridazin-1(6H)-yl)acetamide] | ≤ 10
13 | CCCn1nc(-c2nc(COc3ccccc3)no2)ccc1=O [Compound 77, 6-(3-(phenoxymethyl)-1,2,4-oxadiazol-5-yl)-2-propylpyridazin-3(2H)-one] | 10 to 100
14 | O=c1ccc(-n2cncn2)nn1Cc1csc(Br)c1 [Compound 80, 2-((5-bromothiophen-3-yl)methyl)-6-(1H-1,2,4-triazol-1-yl)pyridazin-3(2H)-one] | 10 to 100
15 | O=C(Cn1nc(-c2nnc(-c3cncc(Cl)c3)s2)ccc1=O)NC1CCC1 [Compound 20, 2-(3-(5-(5-chloropyridin-3-yl)-1,3,4-thiadiazol-2-yl)-6-oxopyridazin-1(6H)-yl)-N-cyclobutylacetamide] | ≤ 10
16 | O=c1ccc(-c2nc(-c3ccc(Cl)cc3)no2)cn1Cc1ccc(Cl)cc1 [Compound 122, 1-(4-chlorobenzyl)-5-(3-(4-chlorophenyl)-1,2,4-oxadiazol-5-yl)pyridin-2(1H)-one] | > 120
17 | Cc1ccc(-c2ccc(=O)n(CC(=O)NC3CCCCC3)n2)s1 [Compound 44, N-cyclohexyl-2-(3-(5-methylthiophen-2-yl)-6-oxopyridazin-1(6H)-yl)acetamide] | > 100
